The test system of series [1] is Rattus norvegicus. Nature of the series: Anticoagulant activity in Sprague-Dawley rat assessed as change in factor 10 content in blood at 0.25 mg/kg, po after 4 days (reference value: 60.6%+/-3.0 %). It counts as functional.
Series [2] deals with Rattus norvegicus. Nature of the series: Anticoagulant activity in Sprague-Dawley rat assessed as change in prothrombin time at 2.5 mg/kg, po after 4 days ([…]). The series is classed as functional.
Series [3] concerns Rattus norvegicus. Nature of the series: Anticoagulant activity in Sprague-Dawley rat assessed as change in factor 7 content in blood at 2.5 mg/kg, po after 4 days (reference value: 400%+/-33.2%). The series is classed as functional.
For series [4], the system named is Rattus norvegicus. Nature of the series: Anticoagulant activity in Sprague-Dawley rat assessed as change in factor 10 content in blood at 2.5 mg/kg, po after 4 days (reference value: 60.6%+/-3.0 %). It counts as functional.
For series [5], the system named is Rattus norvegicus. In words: Anticoagulant activity in Sprague-Dawley rat assessed as change in prothrombin time at 0.025 mg/kg, po after 10 days ([…]). The series is classed as functional.
The test system of series [6] is Rattus norvegicus. Nature of the series: Anticoagulant activity in Sprague-Dawley rat assessed as change in factor 7 content in blood at 0.025 mg/kg, po after 10 days (reference value: 321.3%+/-14.7 %). The series is classed as functional.
In series [7] the test system is Rattus norvegicus. Nature of the series: Anticoagulant activity in Sprague-Dawley rat assessed as change in factor 10 content in blood at 0.025 mg/kg, po after 10 days (reference value: 58.1%+/-1.8 %). The series is classed as functional.
The test system of series [8] is Rattus norvegicus. In words: Anticoagulant activity in Sprague-Dawley rat assessed as change in prothrombin time at 0.25 mg/kg, po after 10 days (Rvb=12.9+/-0.7 sec). The series is classed as functional.
For series [9], the system named is Rattus norvegicus. In words: Anticoagulant activity in Sprague-Dawley rat assessed as change in factor 7 content in blood at 0.25 mg/kg, po after 10 days (reference value: 321.3%+/-14.7 %). The series is classed as functional.
The test system of series [10] is Rattus norvegicus. Nature of the series: Anticoagulant activity in Sprague-Dawley rat assessed as change in factor 10 content in blood at 0.25 mg/kg, po after 10 days (reference value: 58.1%+/-1.8 %). The series is classed as functional.
Series [11] deals with Rattus norvegicus. Nature of the series: Anticoagulant activity in Sprague-Dawley rat assessed as change in prothrombin time at 2.5 mg/kg, po after 10 days (Rvb=12.9+/-0.7 sec). The series is classed as functional.
Series [12] concerns Rattus norvegicus. Nature of the series: Anticoagulant activity in Sprague-Dawley rat assessed as reduction factor 7 content in blood at 2.5 mg/kg, po after 10 days (reference value: 321.3%+/-14.7 %). It counts as functional. The arrangement: scale not given: the % may be the effect or the level left.
In series [13] the test system is Rattus norvegicus. Nature of the series: Anticoagulant activity in Sprague-Dawley rat assessed as change in factor 10 content in blood at 2.5 mg/kg, po after 10 days (reference value: 58.1%+/-1.8 %). It counts as functional.
The subject of series [14] is Rattus norvegicus. In words: Anticoagulant activity in orally dosed Sprague-Dawley rat. The series is classed as functional, organism-based.
For series [15], the system named is Rattus norvegicus. Nature of the series: Potentiation of warfarin-induced anticoagulant activity in Sprague-Dawley rat assessed as change in prothrombin time at 2.5 mg/kg, po after 4 days (Rvb= 12.8+/-0.5 sec). The series is classed as functional.
Series [16] relates to Rattus norvegicus. In words: Potentiation of warfarin-induced anticoagulant activity in Sprague-Dawley rat assessed as change in factor 7 level at 2.5 mg/kg, po after 4 days (reference value: 400 %+/-33.2%). It counts as functional.
Series [17] relates to Rattus norvegicus. In words: Potentiation of warfarin-induced anticoagulant activity in Sprague-Dawley rat assessed as change in factor 10 level at 2.5 mg/kg, po after 4 days (Rvb =60.6%+/-3.0%). The series is classed as functional.
The test system of series [18] is Rattus norvegicus. In words: Potentiation of warfarin-induced anticoagulant activity in Sprague-Dawley rat assessed as change in factor 10 level at 2.5 mg/kg, po after 10 days (Rvb =58.1%+/-1.8%). It counts as functional.
The test system of series [19] is Rattus norvegicus. Nature of the series: Potentiation of warfarin-induced anticoagulant activity in Sprague-Dawley rat assessed as change in factor 7 level at 2.5 mg/kg, po after 10 days (reference value: 321.3 %+/-14.7%). The series is classed as functional.
For series [20], the system named is Rattus norvegicus. In words: Potentiation of warfarin-induced anticoagulant activity in Sprague-Dawley rat assessed as change in prothrombin time at 2.5 mg/kg, po after 10 days (Rvb= 12.9+/-0.7 sec). It counts as functional.
Series [21] concerns Rattus norvegicus. Nature of the series: Anticoagulant activity in Sprague-Dawley rat assessed as change in prothrombin time at 0.025 mg/kg, po after 4 days (Rvb=12.8+/-0.5 sec). It counts as functional.
In series [22] the test system is Rattus norvegicus. Nature of the series: Anticoagulant activity in Sprague-Dawley rat assessed as change in factor 7 content in blood at 0.025 mg/kg, po after 4 days (reference value: 400%+/-33.2%). It counts as functional.
The subject of series [23] is Rattus norvegicus. Nature of the series: Anticoagulant activity in Sprague-Dawley rat assessed as change in factor 10 content in blood at 0.025 mg/kg, po after 4 days (reference value: 60.6%+/-3.0 %). It counts as functional.
The species named for series [24] is Rattus norvegicus. Nature of the series: Cytotoxicity in Sprague-Dawley rat. It counts as organism-based. As to conditions: in vivo.
Series [25] has as its system Rattus norvegicus. In words: Anticoagulant activity in Sprague-Dawley rat assessed as change in prothrombin time at 0.25 mg/kg, po after 4 days ([…]). It counts as functional.
In series [26] the test system is Rattus norvegicus. Nature of the series: Anticoagulant activity in Sprague-Dawley rat assessed as change in factor 7 content in blood at 0.25 mg/kg, po after 4 days (reference value: 400%+/-33.2%). It counts as functional.

Molecules are shown by their SMILES. The source made the active and inactive calls. The rule behind the calls is not given here.

From ChEMBL document CHEMBL1155392, “New adjuvants to enhance anticoagulant activity of warfarin” (Bioorg Med Chem Lett, 2010) come the findings set out here.

On to `CC(=O)Oc1c2c(c(OC(C)=O)c3ccccc13)[C@@]1(C)C[C@]2(C)[C@]2(C)O[C@@]21C`, for which the Activity with Rattus norvegicus [1] stood at 61%; with Rattus norvegicus [3] it was 395.5%; with Rattus norvegicus [4] it was 61%; with Rattus norvegicus [6] it was 350.3%; in the series with Rattus norvegicus [7], 64.2%; in the series on Rattus norvegicus [9], 295.2%. The Activity in the series on Rattus norvegicus [10] worked out at 59.8%; in the series with Rattus norvegicus [12] it was 285.8%; in the series on Rattus norvegicus [13], 61%; in the series with Rattus norvegicus [16], 264%; in the series on Rattus norvegicus [17], 58.8%; in the series on Rattus norvegicus [18], 3.6%. Moreover, the Activity is listed as 18.4% in the series on Rattus norvegicus [19]; 366.3% in the series with Rattus norvegicus [22]; 73.3% in the series with Rattus norvegicus [23]; “Not Active” in the series listed under Rattus norvegicus [24]; 334.3% with Rattus norvegicus [26]. Further, the PT is reported as 12.7 s in the series with Rattus norvegicus [2]; 11.6 s in the series on Rattus norvegicus [5]; 11.6 s in the series on Rattus norvegicus [8]; 11.6 s in the series with Rattus norvegicus [11]; 12 s in the series with Rattus norvegicus [15]; 108.4 s with Rattus norvegicus [20]. Moreover, the figures for the PT in the series on Rattus norvegicus [21] and in the series on Rattus norvegicus [25] were 11.4 s and 11.6 s, respectively. Besides, in the series with Rattus norvegicus [14], the outcome was inactive.

Consider `CC(=O)Oc1c2c(c(OC(C)=O)c3ccccc13)[C@]1(C)C=C[C@]2(C)C1`, for which the Activity with Rattus norvegicus [1] is listed as 65.3%; in the series with Rattus norvegicus [3], 370.8%; in the series on Rattus norvegicus [4] it was 64.3%; in the series with Rattus norvegicus [6] it was 364%; in the series with Rattus norvegicus [7], 68%; in the series on Rattus norvegicus [9], 304.7%. Also, the Activity in the series on Rattus norvegicus [10] is 61.2%; in the series on Rattus norvegicus [12], 286.8%; in the series with Rattus norvegicus [13], 61%; in the series with Rattus norvegicus [16] it was 20.3%; in the series on Rattus norvegicus [17] it was 4.8%; in the series on Rattus norvegicus [18], 7.7%. The Activity is given as 35% in the series on Rattus norvegicus [19]; 346.8% with Rattus norvegicus [22]; 74.5% in the series on Rattus norvegicus [23]; “Not Active” in the series filed under Rattus norvegicus [24]; 351.3% in the series with Rattus norvegicus [26]. In addition, the PT is 11.8 s in the series with Rattus norvegicus [2]; 11.4 s with Rattus norvegicus [5]; 11.7 s with Rattus norvegicus [8]; 11.6 s with Rattus norvegicus [11]; 40.5 s in the series with Rattus norvegicus [15]; 35.4 s in the series with Rattus norvegicus [20]. The results for the PT in the series with Rattus norvegicus [21] and in the series on Rattus norvegicus [25] were 11.2 s and 11.6 s, respectively. The result with Rattus norvegicus [14] was inactive.

Turning to `CC(=O)CC(c1ccccc1)c1c(O)c2ccccc2oc1=O` (stereo not drawn) [WARFARIN], the Activity in the series with Rattus norvegicus [1] worked out at 10%; with Rattus norvegicus [9], 56.2%; with Rattus norvegicus [10], 14.9%; in the series with Rattus norvegicus [26], 29.5%. In addition, the PT with Rattus norvegicus [8] stood at 24.4 s; with Rattus norvegicus [25], 37 s.
